Experimental data published in patent publication US20210186977A1, “MEDICAL USES” (priority 2018, published 2021).

System: Herpes Zoster (varicella zoster virus)
Assay: Valaciclovir prophylaxis against HZ activation in patients receiving CellProtect infusions
Assay type: in vivo, human
Details: 500 mg twice daily for 6 months following infusions; patients 110 and 111; within 12 months following prophylaxis
Experimental: Since the development of HZ was clearly associated with the NK cell infusions in the first four patients the last two patients (110 and 111) were treated with high dose valaciclovir, 500 mg twice daily for 6 months following the infusions.

SMILES: CC(C)[C@H](N)C(=O)OCCOCn1cnc2c(=O)[nH]c(N)nc21 [valaciclovir]
- Signs of HZ activation: did not show any signs of HZ activation
